Results published in ChEMBL document CHEMBL5050844 (2019).

How the values were obtained:
[1] = Induction of anti-CD3/CD28 antibodies-stimulated human T cell activation at 1 uM assessed fold increase in IL-2 secretion measured by ELISA assay; type: functional, T cell line
[2] = Induction of anti-CD3 antibodies-stimulated human exhausted T cell activation assessed fold increase in IFN-gamma secretion measured by ELISA assay; type: functional, T cell line; note: reference of the scale not given here
[3] = Induction of anti-CD3/CD28 antibodies-stimulated human CD8+ T cell activation at 10 uM assessed fold increase in CD69 expression measured by flow cytometry analysis; type: functional, T cell line
[4] = Induction of anti-CD3 antibodies-stimulated human exhausted T cell activation assessed fold increase in GM-CSF secretion measured by ELISA assay; type: functional, T cell line; note: reference of the scale not given here
[5] = Induction of anti-CD3/CD28 antibodies-stimulated human T cell activation at 10 uM assessed fold increase in GM-CSF secretion measured by ELISA assay; type: functional, T cell line
[6] = Induction of activation of human CD56+ CD3- NK cells co-cultured with human K562 cells in 1:1 ratio and assessed as increase in IFN-gamma secretion at 0.625 uM measured by ELISA assay; type: functional, Natural killer cell
[7] = Induction of anti-CD3 antibodies-stimulated human T cell activation at 10 uM assessed fold increase in TNF-alpha secretion measured by ELISA assay; type: functional, T cell line; note: reference of the scale not given here
[8] = Induction of anti-CD3/CD28 antibodies-stimulated human T cell activation at 1 uM assessed fold increase in CD25 expression measured by ELISA assay; type: functional, T cell line
[9] = Induction of anti-CD3/CD28 antibodies-stimulated human T cell activation at 4 uM assessed fold increase in CD25 expression measured by ELISA assay; type: functional, T cell line
[10] = Induction of anti-CD3/CD28 antibodies-stimulated human T cell activation at 0.3 uM assessed fold increase in IL-2 secretion measured by ELISA assay; type: functional, T cell line
[11] = Induction of anti-CD3 antibodies-stimulated human exhausted CD4+ T cell activation assessed fold increase in CTLA4 expression measured by flow cytometry analysis; type: functional, T cell line; note: reference of the scale not given here
[12] = Induction of anti-CD3/CD28 antibodies-stimulated human T cell activation at 1.11 uM assessed fold increase in TNF-alpha secretion measured by ELISA assay; type: functional, T cell line
[13] = Induction of allogenic human T cell activation at 3 uM assessed fold increase in cell proliferation; type: functional, T cell line
[14] = Induction of anti-CD3/CD28 antibodies-stimulated human T cell activation at 1.11 uM assessed fold increase in GM-CSF secretion measured by ELISA assay; type: functional, T cell line
[15] = Induction of anti-CD3 antibodies-stimulated human CD8+ T cell activation at 1.11 uM assessed fold increase in cell proliferation measured by flow cytometry analysis; type: functional, T cell line; note: reference of the scale not given here
[16] = molecular target: T1, E3 ubiquitin-protein ligase CBL-B (Homo sapiens, UniProt Q13191); experiment: Binding affinity towards N-terminal biotinylated Avi-tagged human CBL-B (36 to 427 residues) measured by surface plasmon resonance assay
[17] = molecular target: T1, E3 ubiquitin-protein ligase CBL-B; experiment: Inhibition of N-terminal Avi-tagged human CBL-B (36 to 427 residues) incubated with 60 nM Src kinase for 1.5 hrs followed by incubation with fluorescently labeled UbcH5B-Ub for 1 hr and measured by TR-FRET assay; type: single protein

T1 sequence (Q13191 whole entry, the tested form may be a part): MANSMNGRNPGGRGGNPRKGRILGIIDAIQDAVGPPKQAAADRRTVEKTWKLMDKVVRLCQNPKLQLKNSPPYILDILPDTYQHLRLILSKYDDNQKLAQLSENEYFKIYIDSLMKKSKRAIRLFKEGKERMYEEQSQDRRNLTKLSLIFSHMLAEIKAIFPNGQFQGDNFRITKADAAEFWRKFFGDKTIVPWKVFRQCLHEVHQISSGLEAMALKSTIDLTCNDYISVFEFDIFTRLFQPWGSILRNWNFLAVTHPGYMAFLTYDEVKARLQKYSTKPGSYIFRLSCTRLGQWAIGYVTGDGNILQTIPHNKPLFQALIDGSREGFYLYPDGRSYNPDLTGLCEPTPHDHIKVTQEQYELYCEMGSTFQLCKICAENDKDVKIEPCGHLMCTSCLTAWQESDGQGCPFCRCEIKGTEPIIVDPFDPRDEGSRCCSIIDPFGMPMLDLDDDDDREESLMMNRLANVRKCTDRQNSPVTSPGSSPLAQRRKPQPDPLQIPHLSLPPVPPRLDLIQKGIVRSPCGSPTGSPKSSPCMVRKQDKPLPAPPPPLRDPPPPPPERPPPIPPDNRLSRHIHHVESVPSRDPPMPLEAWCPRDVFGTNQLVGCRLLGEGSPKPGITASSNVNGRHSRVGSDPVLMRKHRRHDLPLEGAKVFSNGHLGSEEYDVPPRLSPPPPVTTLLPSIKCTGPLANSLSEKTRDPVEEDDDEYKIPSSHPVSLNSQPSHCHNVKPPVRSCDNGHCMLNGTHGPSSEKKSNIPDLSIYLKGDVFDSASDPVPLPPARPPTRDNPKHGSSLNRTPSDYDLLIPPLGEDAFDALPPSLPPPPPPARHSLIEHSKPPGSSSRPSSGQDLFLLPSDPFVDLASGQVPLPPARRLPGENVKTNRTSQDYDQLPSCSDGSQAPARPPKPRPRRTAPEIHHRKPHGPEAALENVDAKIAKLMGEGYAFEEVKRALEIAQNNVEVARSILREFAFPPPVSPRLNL

Row | SMILES | fold change (FC) [1] | fold change (FC) [2] | fold change (FC) [3] | fold change (FC) [4] | fold change (FC) [5] | fold change (FC) [6] | fold change (FC) [7] | fold change (FC) [8] | fold change (FC) [9] | fold change (FC) [10] | fold change (FC) [11] | fold change (FC) [12] | fold change (FC) [13] | fold change (FC) [14] | fold change (FC) [15] | Kd [16] [µM] | IC50 [17] [µM]
1 | C[C@H](Cc1nncn1C)c1cccc(NC(=O)c2cccc(CCO)n2)c1 | 1.01 | <=1.4 | <=1.2 | <=1.4 | 1.51 | 1.01 | <=1.5 | 1.01 | 1.31 | 1.01 | <=1.4 | <=1.5 | <=2 | <=1.5 | <=2 | – | –
2 | C[C@H](Sc1nncn1C)c1cccc(NC(=O)c2cc(C(=O)N3CC[C@H](O)C3)ccn2)c1 | <=1 | <=1.4 | 1.201 | <=1.4 | >4 | <=1 | 2.01 | 1.01 | 1.01 | <=1 | <=1.4 | 2.01 | <=2 | 2.01 | >4 | – | –
3 | C[C@H](Cc1nncn1C)c1cccc(N2Cc3c(cc(CN4CC[C@](C)(O)C4)cc3C(F)(F)F)C2=O)c1 | 5 | >1.61 | 1.201 | >1.61 | >4 | 2.01 | 2.01 | 1.31 | 1.31 | 2.51 | 1.41 | 2.01 | 2.01 | 2.01 | >4 | < 0.1 | < 0.1
4 | Cc1n[nH]c(C)c1-c1cc2c(c(C(F)(F)F)c1)CN(c1cccc(C3(Cc4nncn4C)COC3)c1)C2=O | 2.51 | 1.41 | 1.201 | <=1.4 | 2.01 | 1.01 | 1.51 | 1.01 | 1.31 | 1.01 | >1.61 | 1.51 | <=2 | 1.51 | 3.01 | < 0.1 | < 0.1
5 | Cc1cc2c(c(C3CC3)n1)CN(c1cccc([C@H](C)Cc3nncn3C)c1)C2=O | 1.01 | <=1.4 | 1.201 | <=1.4 | 2.01 | 1.01 | <=1.5 | 1.01 | 1.01 | 1.01 | <=1.4 | <=1.5 | <=2 | <=1.5 | <=2 | – | –
6 | Cn1cnnc1C(F)(F)[C@](C)(F)c1cccc(N2Cc3c(cc(CN4CC[C@@H](C#N)C4)cc3C(F)(F)F)C2=O)c1 | >=7.5 | >1.61 | 1.201 | >1.61 | >4 | 2.01 | 2.01 | 1.31 | 1.31 | 5 | >1.61 | 2.01 | <=2 | 2.01 | >4 | – | < 0.1
7 | C[C@H](Cc1nncn1C)c1cccc(NC(=O)c2n[nH]c3c2CCC3)c1 | 1.01 | <=1.4 | 1.201 | <=1.4 | 2.01 | 1.01 | <=1.5 | 1.01 | 1.01 | 1.01 | <=1.4 | <=1.5 | <=2 | <=1.5 | >4 | – | –
8 | C[C@H](Cc1nncn1C)c1cccc(NC(=O)c2nc(C(F)(F)F)c[nH]2)c1 | 2.51 | >1.61 | 1.201 | <=1.4 | 2.01 | 2.01 | 1.51 | 1.01 | 1.01 | 1.01 | <=1.4 | <=1.5 | <=2 | 1.51 | 2.01 | – | –
9 | Cn1cnnc1[C@@H]1C[C@@H]1c1cccc(N2Cc3c(ccnc3C(F)(F)F)C2=O)c1 | 1.01 | <=1.4 | 1.201 | <=1.4 | 2.01 | 1.01 | 1.51 | 1.01 | 1.01 | 1.01 | <=1.4 | <=1.5 | <=2 | <=1.5 | <=2 | – | –
10 | C[C@H](Cc1nncn1C)c1cccc(N2Cc3c(ccnc3C3CC3)C2=O)c1 | 1.01 | >1.61 | 1.201 | <=1.4 | >4 | 2.01 | <=1.5 | 1.01 | 1.31 | 1.01 | <=1.4 | 1.51 | <=2 | 2.01 | <=2 | – | –
11 | Cc1cc(C(=O)Nc2cccc([C@@H](C)Cc3nncn3C)c2)nc(C2CC2)n1 | 1.01 | <=1.4 | 1.201 | <=1.4 | 2.01 | 1.01 | <=1.5 | 1.01 | 1.01 | 1.01 | <=1.4 | <=1.5 | <=2 | 1.51 | 2.01 | – | –
12 | Cn1cnnc1CC1(c2cccc(N3Cc4c(cc(CN5CC[C@H](C#N)C5)cc4C(F)(F)F)C3=O)c2)COC1 | >=7.5 | <=1.4 | 1.201 | 1.41 | >4 | 2.01 | 1.51 | 1.31 | 1.31 | 5 | >1.61 | 2.01 | <=2 | 2.01 | 3.01 | – | < 0.1
